From patent publication US7572786B2, “Substituted 1-piperidin-3-yl-4-piperidin-4-yl-piperazine derivatives and their use as neurokinin antagonists” (Janssen Pharmaceutica, N.V., priority 2002, dated 2009) come the findings set out here.

Common to all, as to format: cell-based
One assay concerns the target NK1 (Homo sapiens, UniProt P25103). The assay is described as follows: Signal transduction (ST), intracellular Ca++ (FLIPR), NK1 antagonism. To be noted: for IC50: read-out: pIC50 NK1 (converted). The essentials:
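Confluent cells were loaded with 2 μM Fluo3 with probenecid for 1 h at 37°C, then preincubated with antagonist concentration ranges for 20 min at RT before agonist addition. Peak FLIPR calcium transient was taken as signal; IC50 from non-linear regression of sigmoidal curves.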

The target in a further assay is T1, NK2 (Homo sapiens, UniProt P21452).
T1 sequence (P21452 1-398): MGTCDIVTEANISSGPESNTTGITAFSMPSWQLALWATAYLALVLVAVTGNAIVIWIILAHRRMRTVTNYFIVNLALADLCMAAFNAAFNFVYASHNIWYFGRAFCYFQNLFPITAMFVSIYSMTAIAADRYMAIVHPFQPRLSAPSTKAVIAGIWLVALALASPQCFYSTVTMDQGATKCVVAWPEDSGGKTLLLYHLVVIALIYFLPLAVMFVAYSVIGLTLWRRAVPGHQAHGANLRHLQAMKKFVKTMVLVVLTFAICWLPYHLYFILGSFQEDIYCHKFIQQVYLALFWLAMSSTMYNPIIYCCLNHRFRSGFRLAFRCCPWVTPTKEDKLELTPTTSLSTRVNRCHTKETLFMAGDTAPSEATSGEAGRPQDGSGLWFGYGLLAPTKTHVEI
Nature of the assay: Signal transduction (ST), intracellular Ca++ (FLIPR), NK2. To be noted: for IC50: read-out: pIC50 NK2 (converted). How it is done: [The source words this procedure for another target and reports this target under the same test.] This test evaluates in vitro functional NK1 antagonistic activity. For the measurements of intracellular Ca^++ concentrations the cells were grown on 96-well (black wall/transparent bottom) plates from Costar for 2 days until they reached confluence. The cells were loaded with 2 μM Fluo3 in DMEM containing 0.1% BSA and 2.5 mM probenecid for 1 h at 37° C. […] The cells were preincubated with a concentration range of antagonists for 20 min at RT and Ca^++-signals after addition of the agonists were measured in a Fluorescence Image Plate Reader (FLIPR from Molecular Devices, Crawley, England). The peak of the Ca^++-transient was considered as the relevant signal and the mean values of corresponding wells were analysed as described below.
The sigmoidal dose response curves were analysed by computerised curve-fitting, using the GraphPad Program. […] For antagonist responses the IC50-value was calculated using non-linear regression.

In a further assay the target is T2, NK3 (Homo sapiens, UniProt P29371).
T2 sequence (P29371 1-465): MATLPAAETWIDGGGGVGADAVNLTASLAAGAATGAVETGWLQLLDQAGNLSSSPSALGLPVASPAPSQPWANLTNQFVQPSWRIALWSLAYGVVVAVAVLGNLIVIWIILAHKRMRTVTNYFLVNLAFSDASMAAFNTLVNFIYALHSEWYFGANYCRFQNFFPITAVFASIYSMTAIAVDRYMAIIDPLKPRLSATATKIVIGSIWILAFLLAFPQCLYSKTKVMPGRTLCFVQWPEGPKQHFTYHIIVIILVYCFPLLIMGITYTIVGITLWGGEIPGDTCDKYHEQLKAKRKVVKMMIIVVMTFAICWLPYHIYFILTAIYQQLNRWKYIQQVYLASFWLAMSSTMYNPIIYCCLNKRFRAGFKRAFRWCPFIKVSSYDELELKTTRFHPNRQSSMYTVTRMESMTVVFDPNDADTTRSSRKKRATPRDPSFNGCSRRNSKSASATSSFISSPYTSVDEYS
Nature of the assay: Signal transduction (ST), intracellular Ca++ (FLIPR), NK3. To be noted: for IC50: read-out: pIC50 NK3 (converted).

Chain of NK1 (P25103 whole entry): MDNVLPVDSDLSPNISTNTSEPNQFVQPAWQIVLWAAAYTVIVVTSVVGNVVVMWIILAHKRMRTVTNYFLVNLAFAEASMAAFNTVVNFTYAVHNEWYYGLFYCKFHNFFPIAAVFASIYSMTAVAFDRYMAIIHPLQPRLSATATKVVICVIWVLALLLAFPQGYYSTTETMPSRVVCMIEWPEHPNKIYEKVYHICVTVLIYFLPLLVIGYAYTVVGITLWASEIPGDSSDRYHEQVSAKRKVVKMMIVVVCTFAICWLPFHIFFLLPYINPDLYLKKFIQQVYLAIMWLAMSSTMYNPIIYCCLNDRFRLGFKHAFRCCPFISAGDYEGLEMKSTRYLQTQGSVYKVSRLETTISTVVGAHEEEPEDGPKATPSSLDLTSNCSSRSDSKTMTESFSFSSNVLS

Take `CC(C(=O)N1CCCC(N2CCN([C@H]3CCN(C(=O)c4cc(C(F)(F)F)cc(C(F)(F)F)c4)[C@H](Cc4ccccc4)C3)CC2)C1)c1ccccc1` (stereo partly drawn) [Compound 48]: the IC50 on NK1 was 31.6 nM; at NK2, 1000 nM; at NK3, 631 nM.
As for `O=C(c1ccccc1Cl)N1CCCC(N2CCN([C@H]3CCN(C(=O)c4cc(C(F)(F)F)cc(C(F)(F)F)c4)[C@H](Cc4ccccc4)C3)CC2)C1` (stereo partly drawn) [Compound 10], the IC50 on NK1 was 25.1 nM; on NK2, 3980 nM; on NK3 it was 501 nM.
On to `COc1ccccc1S(=O)(=O)N1CCCC(N2CCN([C@H]3CCN(C(=O)c4cc(C(F)(F)F)cc(C(F)(F)F)c4)[C@H](Cc4ccccc4)C3)CC2)C1` (stereo partly drawn) [Compound 68], for which the “pIC50 NK1” value on NK1 is 8.0. Besides, the “pIC50 NK2” value against NK2 is 5.8. Moreover, the “pIC50 NK3” value against NK3 was 5.8.
As to `Cc1noc(C)c1S(=O)(=O)N1CCCC(N2CCN([C@H]3CCN(C(=O)c4cc(C(F)(F)F)cc(C(F)(F)F)c4)[C@H](Cc4ccccc4)C3)CC2)C1` (stereo partly drawn) [Compound 39], the IC50 on NK1 is 6.31 nM; at NK2, 631 nM; on NK3, 501 nM.
`O=C(c1cc(C(F)(F)F)cc(C(F)(F)F)c1)N1CC[C@H](N2CCN(C3CCCN(S(=O)(=O)c4ccccc4C(F)(F)F)C3)CC2)C[C@H]1Cc1ccccc1` (stereo partly drawn) [Compound 50]: the figures for the IC50 at NK1, at NK2 and on NK3 were 100 nM, 6310 nM and 7940 nM, respectively.
Take `O=C(c1cc(C(F)(F)F)cc(C(F)(F)F)c1)N1CC[C@H](N2CCN(C3CCCN(S(=O)(=O)c4ccc5nonc5c4)C3)CC2)C[C@H]1Cc1ccccc1` (stereo partly drawn) [Compound 45]: the IC50 on NK1 is 20 nM; at NK2, 1580 nM; on NK3, 398 nM.
For `CC(=O)OCC(c1ccccc1Cl)N1CCCC(N2CCN(C3CCN(C(=O)c4cc(C(F)(F)F)cc(C(F)(F)F)c4)C(Cc4ccccc4)C3)CC2)C1` (stereo not drawn) [Compound 124], in that order: 398 nM, 5010 nM and 2510 nM.
In the case of `Cc1nc(S(=O)(=O)N2CCCC(N3CCN([C@H]4CCN(C(=O)c5cc(C(F)(F)F)cc(C(F)(F)F)c5)[C@H](Cc5ccccc5)C4)CC3)C2)cn1C` (stereo partly drawn) [Compound 32], the IC50 at NK1 was 5.01 nM; on NK2, 631 nM; on NK3, 100 nM.
For `O=C(c1cc(C(F)(F)F)cc(C(F)(F)F)c1)N1CC[C@H](N2CCN(C3CCCN(c4cnccn4)C3)CC2)C[C@H]1Cc1ccccc1` (stereo partly drawn) [Compound 26], in that order: 7.94 nM, 7940 nM and 794 nM.
On to `O=C(c1cccnc1)N1CCCC(N2CCN([C@H]3CCN(C(=O)c4cc(C(F)(F)F)cc(C(F)(F)F)c4)[C@H](Cc4ccccc4)C3)CC2)C1` (stereo partly drawn) [Compound 23], for which the IC50 at NK1 was 20 nM; on NK2, 3980 nM; on NK3, 2000 nM.
As to `O=C(c1cc(C(F)(F)F)cc(C(F)(F)F)c1)N1CC[C@H](N2CCN(C3CCCN(C(=O)C4(O)CC4)C3)CC2)C[C@H]1Cc1ccccc1` (stereo partly drawn) [Compound 61], the IC50 is 7.94 nM on NK1, 3160 nM at NK2 and 6310 nM at NK3.
With `O=C(C(O)c1ccccc1)N1CCCC(N2CCN([C@H]3CCN(C(=O)c4cc(C(F)(F)F)cc(C(F)(F)F)c4)[C@H](Cc4ccccc4)C3)CC2)C1` (stereo partly drawn) [Compound 56], the figures for the IC50 at NK1, on NK2 and on NK3 were 7.94 nM, 1000 nM and 2000 nM, respectively.
For `O=C(c1cc(C(F)(F)F)cc(C(F)(F)F)c1)N1CC[C@H](N2CCN(C3CCCN(S(=O)(=O)c4ccc(-c5cnco5)s4)C3)CC2)C[C@H]1Cc1ccccc1` (stereo partly drawn) [Compound 37] the same measures were 12.6 nM, 2000 nM and 631 nM.
As to `O=C(c1cc(C(F)(F)F)cc(C(F)(F)F)c1)N1CC[C@H](N2CCN(C3CCCN(S(=O)(=O)c4cc(Cl)sc4Cl)C3)CC2)C[C@H]1Cc1ccccc1` (stereo partly drawn) [Compound 40], the “pIC50 NK1” value at NK1 turned out to be 7.6. Also, the “pIC50 NK2” value against NK2 was found to be 5.1. Moreover, at NK3, the “pIC50 NK3” value is 6.6.
